Results on 8 compounds are retold here after ChEMBL document CHEMBL6074708, “Advanced Delivery Systems and Novel Psilocin Derivatives for Enhanced Therapeutic Applications” (ACS Med Chem Lett, 2024).

The experiment deals with 5-hydroxytryptamine receptor 2A (Homo sapiens) (UniProt P28223). The experiment is described as follows: Displacement of [3H]ketanserin from human 5HT2A receptor expressed in HEK293 cells at 0 to 10000 nM preincubated with compound for 30 mins followed by [3H]ketanserin addition and measured after 60 mins by microBeta scintillation counter relative to psilocin. As to conditions: dose 0-10000 nM, time 90.0 min; call rule not given here. Format: cell-based.
Chain of 5-hydroxytryptamine receptor 2A (Homo sapiens) (P28223 whole entry): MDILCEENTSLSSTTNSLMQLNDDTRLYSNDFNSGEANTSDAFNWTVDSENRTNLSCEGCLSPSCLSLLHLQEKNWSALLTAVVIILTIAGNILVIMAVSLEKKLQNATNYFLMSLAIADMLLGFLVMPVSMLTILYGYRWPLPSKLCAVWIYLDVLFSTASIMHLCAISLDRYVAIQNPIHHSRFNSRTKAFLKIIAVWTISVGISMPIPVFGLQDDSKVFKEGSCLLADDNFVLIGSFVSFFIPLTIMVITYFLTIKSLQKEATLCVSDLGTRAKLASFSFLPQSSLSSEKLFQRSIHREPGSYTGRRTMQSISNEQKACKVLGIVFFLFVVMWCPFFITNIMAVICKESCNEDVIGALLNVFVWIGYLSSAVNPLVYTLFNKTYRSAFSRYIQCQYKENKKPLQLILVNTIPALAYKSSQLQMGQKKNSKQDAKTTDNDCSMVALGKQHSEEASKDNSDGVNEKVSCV
For `CN(C)CCc1c[nH]c2cccc(OC(=O)C(C)(C)C(=O)Oc3cccc4[nH]cc(CCN(C)C)c34)c12`, the Activity entry is “Active; Higher Activity Observed”.
In the case of `CN(C)CCc1c[nH]c2cccc(OC(=O)c3cccc(C(=O)Oc4cccc5[nH]cc(CCN(C)C)c45)c3)c12` it was “Active; Higher Activity Observed”; in that of `CN(C)CCc1c[nH]c2cccc(OC(=O)c3ccccc3F)c12`, “Active; Same Activity Observed”.
As to `CN(C)CCc1c[nH]c2cccc(O)c12`, the Activity result is reported as “Active; Same Activity Observed”.
`CN(C)CCc1c[nH]c2cccc(OC(=O)CCC(=O)Oc3cccc4[nH]cc(CCN(C)C)c34)c12`: the Activity result was “Active; Higher Activity Observed”.
As for `CN(C)CCc1c[nH]c2cccc(OC(=O)c3ccc(Br)cc3)c12`, the entry is “Active; Same Activity Observed”; as for `CN(C)CCc1c[nH]c2cccc(OC(=O)CCCC(=O)Oc3cccc4[nH]cc(CCN(C)C)c34)c12`, “Active; Higher Activity Observed”.
In the case of `CN(C)CCc1c[nH]c2cccc(OC(=O)[C@H]3C[C@@H]3C(=O)Oc3cccc4[nH]cc(CCN(C)C)c34)c12` it was “Active; Higher Activity Observed”.
